The record followed here is patent US20250136592A1, “C-LINKED INHIBITORS OF ENL/AF9 YEATS” (Bridge Medicines, priority 2021, published 2025).

The IC50 is the concentration at which inhibition is half-maximal.

Read-outs that look alike come from different tables or passages of the source.

In assay [1] the test system is MV4:11 (MLL-AF4 MLL) cells. Kind of assay: Cell viability assay (CellTiter-Glo), 12 days. Format: cell-based. Particulars: MV4;11 cells, 12 day, read-out: CTG_MV4, 11 12 DAY_EC50. How it is done:
The assays were conducted over 12 days and the cells being split on days 4 and 8. […] Blank wells received cell culture medium. Plates were incubated for 4 days at 37° C. with 5% CO2. On days 4 and day 8 the cells were split and incubated for a further 4 days whilst an aliquot of cells were taken for the CTG readout. For the cell splitting, 270 nL of compounds or DMSO was added to a new 96 well cell culture plate to which 90 μL of medium plus 10 μL of cells from the original assay plate (after mixing) or 100 μL of medium (Blank wells) was added. This was repeated on day 8.
Cell viability was assessed using the CellTiter-Glo® homogeneous luminescent assay kit (Promega, G9243), according to the manufacturer's instructions. This quantifies ATP, which indicates the presence of metabolically active cells. […] The resulting data were analyzed as follows:
where vehicle are cells treated with 0.3% DMSO, Blank is culture medium. IC50 determinations were calculated by fitting the curve using XLfit (v5.3.1.3): Y=Bottom+(Top−Bottom)/(1+10^((LogIC50−X)*HillSlope)).

Another assay deals with ENL YEATS domain (Homo sapiens (Human), UniProt Q03111). Kind of assay: TR-FRET ENL Screening Assay. Particulars: 6xHIS ENL YEATS domain binding to H3K9cr peptide. How it is done: Compounds of the invention were tested in a TR-FRET ENL Screening Assay. TR-FRET (time-resolved fluorescence energy transfer) can be used to quantify ENL YEATS domain binding to a crotonylated histone peptide (H3K9cr, aa1-20). Streptavidin-Europium (Eu) chelate binds the biotinylated peptide, while Anti-6×HIS ULight™ binds 6×HIS-ENL. When Eu chelate is excited at 320 nm, fluorescence resonance energy transfer (FRET) occurs if Eu and ULight are made proximal by ENL binding to the acyl-peptide.
Low control (LC) wells received 5 μL of assay buffer instead of ENL protein. […] The response at each compound concentration minus the LC value was converted to percent inhibition of the vehicle control group response (HC-LC).
(Time-resolved FRET reads energy transfer from a long-lived donor to a nearby acceptor.)

Chain of ENL YEATS domain (Q03111 1-138): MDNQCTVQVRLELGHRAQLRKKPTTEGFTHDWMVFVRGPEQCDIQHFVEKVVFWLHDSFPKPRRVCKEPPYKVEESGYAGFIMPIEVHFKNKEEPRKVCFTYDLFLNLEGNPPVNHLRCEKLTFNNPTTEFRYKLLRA

For `Cc1cc2ccc(C(=O)Nc3cc4[nH]c([C@H]5CCCN5C)cc4cn3)cn2n1` [Example 1, 2-methyl-N-{2-[(2R)-1-methylpyrrolidin-2-yl]-1H-pyrrolo[3,2-c]pyridin-6-yl}pyrazolo[1,5-a]pyridine-6-carboxamide], the EC50 in assay [1] (Homo sapiens, 288 h) is 3250 nM.

Regarding `CN1CCCC1c1nc2cnc(NC(=O)c3ccc4c(cnn4C)c3)cc2[nH]1` (stereo not drawn) [Example 2, 1-methyl-N-(2-(1-methylpyrrolidin-2-yl)-1H-imidazo[4,5-c]pyridin-6-yl)-1H-indazole-5-carboxamide], the EC50 in assay [1] (Homo sapiens, 288 h) was determined as 1320 nM. Regarding `CN1CCC[C@@H]1c1nc2cc(NC(=O)c3ccc4c(cnn4-c4ccncc4)c3)ccc2[nH]1` [Example 3, (R)—N-(2-(1-methylpyrrolidin-2-yl)-1H-benzo[d]imidazol-5-yl)-1-(pyridin-4-yl)-1H-indazole-5-carboxamide], the EC50 in assay [1] (Homo sapiens, 288 h) is 571 nM.

Take `CC(O)c1ncc2cc(C(=O)Nc3cc4[nH]c([C@H]5CCCN5C)cc4cn3)ccn12` (stereo partly drawn) [Example 4, 3-(1-hydroxyethyl)-N-(2-((R)-1-methylpyrrolidin-2-yl)-1H-pyrrolo[3,2-c]pyridin-6-yl) imidazo[1,5-a]pyridine-7-carboxamide]: the EC50 in assay [1] stood at 4370 nM. Further, the concentration for half-maximal inhibition (IC50) on ENL YEATS domain turned out to be 203 nM. At ENL YEATS domain, `CN1CCC[C@@H]1c1cc2cnc(NC(=O)c3cc4c(cn3)cnn4C)cc2[nH]1` [Example 5, (R)-1-methyl-N-(2-(1-methylpyrrolidin-2-yl)-1H-pyrrolo[3,2-c]pyridin-6-yl)-1H-pyrazolo[4,3-c]pyridine-6-carboxamide] came in with a 50% inhibitory concentration (IC50) of 1240 nM. Take `CN1CCC[C@@H]1c1cc2cnc(NC(=O)c3ccn4c(C5COC5)ncc4c3)cc2[nH]1` [Example 6, (R)—N-(2-(1-methylpyrrolidin-2-yl)-1H-pyrrolo[3,2-c]pyridin-6-yl)-3-(oxetan-3-yl) imidazo[1,5-a]pyridine-7-carboxamide]: the EC50 in assay [1] stood at 33 nM. In addition, the IC50 on ENL YEATS domain came out at 106 nM. As to `CN1CCC[C@@H]1c1nc2cc(NC(=O)c3cc4cnn(-c5ccncc5)c4cc3F)ccc2[nH]1` [Example 7, (R)-6-fluoro-N-(2-(1-methylpyrrolidin-2-yl)-1H-benzo[d]imidazol-5-yl)-1-(pyridin-4-yl)-1H-indazole-5-carboxamide], the EC50 in assay [1] (Homo sapiens, 288 h) amounted to 101 nM. For the same compound, the IC50 at ENL YEATS domain was 142 nM. On the same counts, the results for `CN1CCCC[C@@H]1c1cc2cnc(NC(=O)c3ccc4cnn(C)c4c3)cc2[nH]1` [Example 8, 1-methyl-N-[2-[(2R)-1-methylpiperidin-2-yl]-1H-pyrrolo[3,2-c]pyridin-6-yl]indazole-6-carboxamide] are 123 nM and 100 nM. In turn, `CN1CCCCC1c1nc2cc(NC(=O)c3ccc4c(cnn4C)c3)ccc2[nH]1` (stereo not drawn) [Example 9, 1-methyl-N-[2-(1-methylpiperidin-2-yl)-1H-1,3-benzodiazol-5-yl]indazole-5-carboxamide] came in with an IC50 on ENL YEATS domain of 200 nM.

As to `CN1CCC[C@@H]1c1nc2ccc(NC(=O)c3ccc4c(C5CC5)nn(C)c4c3)cc2[nH]1` [Example 10], the EC50 in assay [1] (Homo sapiens, 288 h) is 280 nM. At ENL YEATS domain, `Cc1noc2ccc(C(=O)Nc3ccc4nc([C@H]5CCCN5C)[nH]c4c3)cc12` [Example 11] yielded an IC50 of 465 nM. Take `Cc1noc2cc(C(=O)Nc3ccc4nc(C5CCCN5C)[nH]c4c3)ccc12` (stereo not drawn) [Example 12]: the EC50 in assay [1] (Homo sapiens, 288 h) was 201 nM. The 50% inhibitory concentration (IC50) on ENL YEATS domain is 78 nM. Take `CN1CCC[C@@H]1c1nc2cc(NC(=O)c3ccc4c(-c5ccncc5)noc4c3)ccc2[nH]1` [Example 13]: the EC50 in assay [1] (Homo sapiens, 288 h) was found to be 359 nM. In the case of `Cc1noc2cc(C(=O)Nc3ccc4nc([C@H]5CCCN5C)[nH]c4c3)c(F)cc12` [Example 14], the EC50 in assay [1] (Homo sapiens, 288 h) amounted to 4640 nM. Also, on ENL YEATS domain, the IC50 worked out at 178 nM.

Regarding `CN1CCC[C@@H]1c1nc2ccc(NC(=O)c3cc4cccnc4cc3F)cc2[nH]1` [Example 16], in assay [1] (Homo sapiens, 288 h), the EC50 worked out at 106 nM. The same measure, in the same setting: with `CN1CCC[C@@H]1c1nc2ccc(NC(=O)c3ccc4onc(C5CC5)c4c3)cc2[nH]1` [Example 17] the figure was 3250 nM. In the case of `Cc1noc2c(F)c(C(=O)Nc3ccc4nc([C@H]5CCCN5C)[nH]c4c3)ccc12` [Example 18], on ENL YEATS domain, the IC50 came out at 125 nM.

Regarding `CN1CCC[C@@H]1c1nc2cc(NC(=O)c3ccc4c(cnn4-c4ccccn4)c3)ccc2[nH]1` [Example 21], the 50% inhibitory concentration (IC50) on ENL YEATS domain is 200 nM.

As for `CN1CCC[C@@H]1c1nc2cc(NC(=O)c3ccc4c(cnn4-c4cccnc4)c3)ccc2[nH]1` [Example 22], the concentration for half-maximal inhibition (IC50) on ENL YEATS domain worked out at 131 nM.

The compound `CN1CCC[C@@H]1c1nc2cc(NC(=O)c3ccc4c(cnn4-c4ccncn4)c3)ccc2[nH]1` [Example 23] registered an IC50 at ENL YEATS domain of 277 nM. At ENL YEATS domain, `CN1CCCC1c1nc2ccc(NC(=O)c3ccc4ncccc4c3)cc2[nH]1` (stereo not drawn) [Example 25] showed a half-inhibitory concentration (IC50) of 181 nM.

For `CN1CCC[C@@H]1c1nc2cc(NC(=O)c3ccc4c(c3)[nH]c(=O)n4C)ccc2[nH]1` [Example 26], in assay [1] (Homo sapiens, 288 h), the EC50 was 374 nM. On ENL YEATS domain, this compound showed an IC50 of 145 nM. In the case of `Cc1ncc2ccc(C(=O)Nc3cc4[nH]c([C@H]5CCCN5C)cc4cn3)cn12` [Example 28], the EC50 in assay [1] (Homo sapiens, 288 h) was 186 nM. The compound also registered an IC50 at ENL YEATS domain of 133 nM.

`CN1CCC[C@@H]1c1cc2cnc(NC(=O)c3ccc4c(C5CC5)nn(C)c4c3)cc2[nH]1` [Example 29]: the EC50 in assay [1] (Homo sapiens, 288 h) was determined as 1120 nM. This compound yielded an IC50 on ENL YEATS domain of 21 nM. On the same counts, the results for `Cc1noc2cc(C(=O)Nc3cc4[nH]c([C@H]5CCCN5C)cc4cn3)ccc12` [Example 30] are 39 nM and 51 nM. Consider `Cc1n[nH]c2ccc(C(=O)Nc3cc4[nH]c([C@H]5CCCN5C)cc4cn3)cc12` [Example 31], for which the EC50 in assay [1] (Homo sapiens, 288 h) was 91 nM. In addition, the IC50 on ENL YEATS domain is 57 nM. For the compound `Cc1ncn2cc(C(=O)Nc3cc4[nH]c([C@H]5CCCN5C)cc4cn3)ccc12` [Example 32], the EC50 in assay [1] (Homo sapiens, 288 h) is 12200 nM. This compound also yielded an IC50 on ENL YEATS domain of 58 nM.

`CN1CCC[C@@H]1c1cc2cnc(NC(=O)c3ccc4[nH]nc(C(F)(F)F)c4c3)cc2[nH]1` [Example 33]: in assay [1] (Homo sapiens, 288 h), the EC50 amounted to 1780 nM. The compound further came in with an IC50 on ENL YEATS domain of 42 nM. Take `Cc1cnn2cc(C(=O)Nc3cc4[nH]c([C@H]5CCCN5C)cc4cn3)ccc12` [Example 34]: in assay [1] (Homo sapiens, 288 h), the EC50 is 570 nM. The compound also returned an IC50 at ENL YEATS domain of 48 nM. For `CN1CCC[C@@H]1c1cc2cnc(NC(=O)c3cnc4c(ccn4C)c3)cc2[nH]1` [Example 44], the IC50 at ENL YEATS domain stood at 780 nM. That is a sub-micromolar value.

With `CN1CCC[C@@H]1c1cc2cnc(NC(=O)c3ccc4c(c3)[nH]c(=O)n4C)cc2[nH]1` [Example 48], the half-maximal inhibitory concentration (IC50) on ENL YEATS domain was 30 nM. In the case of `COc1nccc2cc(C(=O)Nc3cc4[nH]c([C@H]5CCCN5C)cc4cn3)ccc12` [Example 52], the half-maximal inhibitory concentration (IC50) at ENL YEATS domain was 25 nM. The IC50 values of the last two compounds are within 1.5-fold of each other. For `Cc1nc(C(F)(F)F)c2ccc(C(=O)Nc3cc4[nH]c([C@H]5CCCN5C)cc4cn3)cn12` [Example 53], the EC50 in assay [1] (Homo sapiens, 288 h) was determined as 5290 nM. The same measure, in the same setting: as for `Cc1nc(C)n2cc(C(=O)Nc3cc4[nH]c([C@H]5CCCN5C)cc4cn3)ccc12` [Example 71], the figure is 220 nM; as for `Cc1ccc2cc(C(=O)Nc3cnc4cc([C@H]5CCCN5C)[nH]c4c3)c(F)cc2n1` [Example 73], 1420 nM; as for `CNc1nccc2cc(C(=O)Nc3cc4[nH]c([C@H]5CCCN5C)cc4cn3)ccc12` [Example 79, (R)-1-(methylamino)-N-(2-(1-methylpyrrolidin-2-yl)-1H-pyrrolo[3,2-c]pyridin-6-yl) isoquinoline-6-carboxamide], 446 nM. Regarding `Cc1nccc2cc(C(=O)Nc3cc4[nH]c([C@H]5CCCCN5C)cc4cn3)ccc12` [Example 80, (R)-1-methyl-N-(2-(1-methylpiperidin-2-yl)-1H-pyrrolo[3,2-c]pyridin-6-yl) isoquinoline-6-carboxamide], in assay [1] (Homo sapiens, 288 h), the EC50 was 187 nM. In the case of `CN1CCC[C@@H]1c1cc2cnc(NC(=O)c3ccc4c(c3)nnn4-c3ccncc3)cc2[nH]1` [Example 85], the EC50 in assay [1] (Homo sapiens, 288 h) came out at 488 nM. Consider `CN1CCCC[C@@H]1c1cc2cnc(NC(=O)c3ccc4nnn(C)c4c3)cc2[nH]1` [Example 91, (R)-1-methyl-N-(2-(1-methylpiperidin-2-yl)-1H-pyrrolo[3,2-c]pyridin-6-yl)-1H-benzo[d][1,2,3]triazole-6-carboxamide], for which, in assay [1] (Homo sapiens, 288 h), the EC50 was 215 nM.

As to `CN1C(=O)Cc2cc(C(=O)Nc3cc4[nH]c([C@H]5CCCCN5C)cc4cn3)ccc21` [Example 95], the EC50 in assay [1] (Homo sapiens, 288 h) turned out to be 451 nM. As for `CN1CCCC[C@@H]1c1cc2cnc(NC(=O)c3ccc4cc(=O)n(C)n4c3)cc2[nH]1` [Example 97], the EC50 in assay [1] (Homo sapiens, 288 h) turned out to be 146 nM. In the case of `CN1CCCC[C@@H]1c1cc2cnc(NC(=O)c3ccc4c(cnn4C)c3)cc2[nH]1` [Example 98], the EC50 in assay [1] (Homo sapiens, 288 h) worked out at 440 nM. In the case of `CN1CCCC[C@@H]1c1cc2cnc(NC(=O)c3ccc4c(=O)n(C)ccc4c3)cc2[nH]1` [Example 100, (R)-2-methyl-N-(2-(1-methylpiperidin-2-yl)-1H-pyrrolo[3,2-c]pyridin-6-yl)-1-oxo-1,2-dihydroisoquinoline-6-carboxamide], in assay [1] (Homo sapiens, 288 h), the EC50 amounted to 202 nM.
